PubChem BioAssay (NCI)
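Tested at 5 concentrations; 48 h exposure; 96-well plates; endpoints linearly interpolated, else capped at highest concentration. GI50 marks 50% less growth. At the TGI there is no net growth.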

Key:
Assay in all cases: inhibition of tumour cell growth, NCI panel, 48 h
[1] = test system: TK-10 renal
[2] = test system: CCRF-CEM leukemia
[3] = test system: T-47D breast
[4] = test system: UO-31 renal
[5] = test system: COLO 205 colon
[6] = test system: DU-145 prostate
[7] = test system: OVCAR-4 ovarian
[8] = test system: SK-MEL-28 melanoma
[9] = test system: SK-MEL-2 melanoma
[10] = test system: 786-0 renal
[11] = test system: CAKI-1 renal
[12] = test system: OVCAR-8 ovarian
[13] = test system: MCF7 breast
[14] = test system: ACHN renal
[15] = test system: BT-549 breast
[16] = test system: HOP-62 NSCLC
[17] = test system: SF-295 CNS
[18] = test system: EKVX NSCLC
[19] = test system: NCI-H23 lung
[20] = test system: UACC-257 melanoma
[21] = test system: M14 melanoma
[22] = test system: NCI/ADR-RES ovarian
[23] = test system: HOP-92 NSCLC
[24] = test system: RPMI-8226 leukemia
[25] = test system: SF-268 CNS
[26] = test system: HCT-15 colon
[27] = test system: A549 NSCLC
[28] = test system: KM12 colon
[29] = test system: OVCAR-3 ovarian
[30] = test system: SK-OV-3 ovarian
[31] = test system: PC-3 prostate
[32] = test system: MDA-MB-435
[33] = test system: U251 CNS
[34] = test system: LOX IMVI melanoma
[35] = test system: MDA-MB-231 breast
[36] = test system: SW-620 colon
[37] = test system: UACC-62 melanoma
[38] = test system: SF-539 CNS
[39] = test system: K-562 leukemia
[40] = test system: NCI-H226 lung
[41] = test system: HCT-116 colon
[42] = test system: A498 renal
[43] = test system: SK-MEL-5 melanoma
[44] = test system: MALME-3M melanoma
[45] = test system: OVCAR-5 ovarian
[46] = test system: SR leukemia
[47] = test system: RXF 393 renal
[48] = test system: SNB-19 CNS
[49] = test system: IGROV1 ovarian
[50] = test system: NCI-H460 lung
[51] = test system: NCI-H522 lung
[52] = test system: HS 578T breast
[53] = test system: HT29 colon

## C=C1C(O)C2C(=C(CC(C)C)C13CC3)C(=O)C(C)(C)C2O (stereo unspecified)
[1]
  GI50: > 100 µM
  TGI: > 100 µM
[2]
  GI50: > 100 µM
  TGI: > 100 µM
[3]
  GI50: > 100 µM
  TGI: > 100 µM
[4]
  GI50: > 100 µM
  TGI: > 100 µM
[5]
  GI50: > 100 µM
  TGI: > 100 µM
[6]
  GI50: > 100 µM
  TGI: > 100 µM
[7]
  GI50: > 100 µM
  TGI: > 100 µM
[8]
  GI50: > 100 µM
  TGI: > 100 µM
[9]
  GI50: > 100 µM
  TGI: > 100 µM
[10]
  GI50: > 100 µM
  TGI: > 100 µM
[11]
  GI50: > 100 µM
  TGI: > 100 µM
[12]
  GI50: > 100 µM
  TGI: > 100 µM
[13]
  GI50: > 100 µM
  TGI: > 100 µM
[14]
  GI50: > 100 µM
  TGI: > 100 µM
[15]
  GI50: > 100 µM
  TGI: > 100 µM
[16]
  GI50: > 100 µM
  TGI: > 100 µM
[17]
  GI50: > 100 µM
  TGI: > 100 µM
[18]
  GI50: > 100 µM
  TGI: > 100 µM
[19]
  GI50: > 100 µM
  TGI: > 100 µM
[20]
  GI50: > 100 µM
  TGI: > 100 µM
[21]
  GI50: > 100 µM
  TGI: > 100 µM
[22]
  GI50: > 100 µM
  TGI: > 100 µM
[23]
  GI50: > 100 µM
  TGI: > 100 µM
[24]
  GI50: 42.1 µM
  TGI: > 100 µM
[25]
  GI50: > 100 µM
  TGI: > 100 µM
[26]
  GI50: > 100 µM
  TGI: > 100 µM
[27]
  GI50: > 100 µM
  TGI: > 100 µM
[28]
  GI50: > 100 µM
  TGI: > 100 µM
[29]
  GI50: 75.8 µM
  TGI: > 100 µM
[30]
  GI50: > 100 µM
  TGI: > 100 µM
[31]
  GI50: > 100 µM
  TGI: > 100 µM
[32]
  GI50: > 100 µM
  TGI: > 100 µM
[33]
  GI50: > 100 µM
  TGI: > 100 µM
[34]
  GI50: > 100 µM
  TGI: > 100 µM
[35]
  GI50: > 100 µM
  TGI: > 100 µM
[36]
  GI50: > 100 µM
  TGI: > 100 µM
[37]
  GI50: > 100 µM
  TGI: > 100 µM
[38]
  GI50: > 100 µM
  TGI: > 100 µM
[39]
  GI50: 0.859 µM
  TGI: > 100 µM
[40]
  GI50: > 100 µM
  TGI: > 100 µM
[41]
  GI50: > 100 µM
  TGI: > 100 µM
[42]
  GI50: > 100 µM
  TGI: > 100 µM
[43]
  GI50: > 100 µM
  TGI: > 100 µM
[44]
  GI50: 89.9 µM
  TGI: > 100 µM
[45]
  GI50: > 100 µM
  TGI: > 100 µM
[46]
  GI50: > 100 µM
  TGI: > 100 µM
[47]
  GI50: > 100 µM
  TGI: > 100 µM
[48]
  GI50: > 100 µM
  TGI: > 100 µM
[49]
  GI50: > 100 µM
  TGI: > 100 µM
[50]
  GI50: > 100 µM
  TGI: > 100 µM
[51]
  GI50: > 100 µM
  TGI: > 100 µM
[52]
  GI50: > 100 µM
  TGI: > 100 µM
[53]
  GI50: > 100 µM
  TGI: > 100 µM
